Results taken from patent US8362065B2, “Carbazole carboxamide compounds useful as kinase inhibitors” (Bristol-Myers Squibb Company, priority 2008, dated 2013).

Experiments:
[1] = test system: Ramos RA1 B cells; assay: Ramos FLIPR Assay; type: cell-based; conditions: goat anti-human IgM 2.5 μg/mL, peak intracellular calcium, read-out: IC50 for Inhibition of Ramos FLIPR assay
[2] = molecular target: T1, human recombinant Btk (Homo sapiens, UniProt Q06187); assay: Human Recombinant Btk Enzyme Assay; type: biochemical; conditions: human recombinant Btk 1 nM, ATP 20 μM, 60 min at room temperature; read-out: IC50 for Inhibition of Btk
T1 construct: purchased Invitrogen Corporation
T1 sequence (Q06187 whole entry): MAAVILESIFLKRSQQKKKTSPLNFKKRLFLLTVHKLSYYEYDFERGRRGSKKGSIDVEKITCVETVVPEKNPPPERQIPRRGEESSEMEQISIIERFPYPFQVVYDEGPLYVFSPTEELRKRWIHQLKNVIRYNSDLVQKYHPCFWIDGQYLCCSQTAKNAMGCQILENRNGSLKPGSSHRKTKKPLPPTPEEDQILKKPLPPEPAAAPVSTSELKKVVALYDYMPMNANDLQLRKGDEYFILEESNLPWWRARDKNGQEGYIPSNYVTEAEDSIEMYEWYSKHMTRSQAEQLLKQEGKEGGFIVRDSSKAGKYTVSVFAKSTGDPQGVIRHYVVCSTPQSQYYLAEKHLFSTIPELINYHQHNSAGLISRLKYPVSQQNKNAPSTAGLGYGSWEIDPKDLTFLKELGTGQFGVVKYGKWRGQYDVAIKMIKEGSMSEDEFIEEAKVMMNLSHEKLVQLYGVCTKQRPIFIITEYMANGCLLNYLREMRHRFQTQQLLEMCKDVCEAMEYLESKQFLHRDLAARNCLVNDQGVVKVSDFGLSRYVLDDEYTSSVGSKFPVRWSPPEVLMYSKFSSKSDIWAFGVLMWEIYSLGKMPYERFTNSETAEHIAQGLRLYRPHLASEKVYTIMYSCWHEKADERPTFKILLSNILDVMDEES

| SMILES | IC50 [1] [nM] | IC50 [2] [nM] |
| --- | --- | --- |
| CN1CCN(C(=O)c2ccc3c(c2)[nH]c2c(C(N)=O)ccc(-c4c(F)cc(NC(=O)c5ccc(F)cc5)cc4F)c23)CC1 [Example 5-48] | 1400 | – |
| Cc1ccc(NC(=O)Nc2cccc(-c3ccc(C(N)=O)c4[nH]c5cc(C(=O)N6CCN(C)CC6)ccc5c34)c2C)cc1C [Example 8-1, 4-(3-(3-(3,4-dimethylphenyl)ureido)-2-methylphenyl)-7-(4-methylpiperazine-1-carbonyl)-9H-carbazole-1-carboxamide] | 5400 | – |
| Cc1c(Nc2ncnc3cc(Cl)ccc23)cccc1-c1ccc(C(N)=O)c2[nH]c3cc(C(=O)N4CCN(C)CC4)ccc3c12 [Example 11-6, 4-(3-(7-chloroquinazolin-4-ylamino)-2-methylphenyl)-7-(4-methylpiperazine-1-carbonyl)-9H-carbazole-1-carboxamide] | 280 | – |
| Cc1ccc2c(c1)CN(c1cccc(-c3ccc(C(N)=O)c4[nH]c5cc(N6CCCC6=O)ccc5c34)c1C)C2=O [Example 66-5] | 260 | – |
| Cc1c(-c2ccc(C(N)=O)c3[nH]c4cc(N5CCOC5=O)ccc4c23)cccc1N1Cc2ccccc2C1=O [Example 66-10] | 270 | – |
| Cc1c(-c2ccc(C(N)=O)c3[nH]c4cc(N5CCNC5=O)ccc4c23)cccc1N1Cc2cc(F)ccc2C1=O [Example 66-14] | 260 | – |
| Cc1c(-c2ccc(C(N)=O)c3[nH]c4cc(NC(=O)C5CC5)ccc4c23)cccc1N1Cc2ccccc2C1=O [Example 66-39] | 260 | – |
| Cc1ccc2c(c1)CN(c1cncc(-c3ccc(C(N)=O)c4[nH]c5cc(N6CCOC6=O)ccc5c34)c1C)C2=O [Example 66-40] | 270 | – |
| Cc1ccc2ncn(-c3cccc(-c4ccc(C(N)=O)c5[nH]c6c(c45)CCC(C(C)(C)O)C6)c3C)c(=O)c2c1 (stereo not shown) [Example 76-43] | 260 | – |
| Cc1ccc2c(c1)C(=O)N(c1cccc(-c3ccc(C(N)=O)c4[nH]c5cc(C(COC(=O)C(C)N)OC(=O)C(C)N)ccc5c34)c1C)C2 (stereo not shown) [Example 83-3, 1-(8-carbamoyl-5-(2-methyl-3-(6-methyl-1-oxoisoindolin-2-yl)phenyl)-9H-carbazol-2-yl)ethane-1,2-diylbis(2-aminopropanoate)] | – | 1.4 |
| Cc1ccc2c(c1)C(=O)N(c1cccc(-c3ccc(C(N)=O)c4[nH]c5cc(C(O)COC(=O)C(C)N)ccc5c34)c1C)C2 (stereo not shown) [Example 83-4, 2-(8-carbamoyl-5-(2-methyl-3-(6-methyl-1-oxoisoindolin-2-yl)phenyl)-9H-carbazol-2-yl)-2-hydroxyethyl 2-aminopropanoate] | – | 1.1 |

Now from value to compound:

| IC50 [1] [nM] | IC50 [2] [nM] | SMILES |
| --- | --- | --- |
| 16 | 1.1 | COC(CO)c1ccc2c(c1)[nH]c1c(C(N)=O)ccc(-c3cccc(N4Cc5ccc(C)cc5C4=O)c3C)c12 (racemic) [Example 75-3] |
| 250 | – | Cc1c(-c2ccc(C(N)=O)c3[nH]c4cc(N5CCCC5=O)ccc4c23)cccc1N1Cc2ccccc2C1=O [Example 62-1, 4-(2-methyl-3-(1-oxoisoindolin-2-yl)phenyl)-7-(2-oxopyrrolidin-1-yl)-9H-carbazole-1-carboxamide] |
| 240 | – | Cc1c(/N=C2\OCc3ccncc32)cccc1-c1ccc(C(N)=O)c2[nH]c3c(c12)CCC(C(C)(C)O)C3 (stereo not shown) [Example 76-7] |
| 18 | – | Cc1c(-c2ccc(C(N)=O)c3[nH]c4cc(C(C)(C)O)ccc4c23)cccc1-n1cnc2cccc(F)c2c1=O [Example 76-26] |
| 14 | – | Cc1c(/N=C2\OCc3ccncc32)cccc1-c1ccc(C(N)=O)c2[nH]c3cc(C(C)(C)OCCO)ccc3c12 [Example 76-49] |
| 16 | – | Cc1cn2ccn(-c3cccc(-c4ccc(C(N)=O)c5[nH]c6cc(NC(C)C)ccc6c45)c3C)c(=O)c2n1 [Example 80-2] |
| 15 | – | Cc1c(Nc2ncnc3c(F)cccc23)cccc1-c1ccc(C(N)=O)c2[nH]c3cc(C(C)(C)O)ccc3c12 [Example 81-1, 4-(3-(8-fluoroquinazolin-4-ylamino)-2-methylphenyl)-7-(2-hydroxypropan-2-yl)-9H-carbazole-1-carboxamide] |
